Measurements published in patent publication US11426375B2, “Substituted bisphenyl butanoic ester derivatives as NEP inhibitors” (NOVARTIS AG, priority 2019, dated 2022).

Columns and labels:
[1] = type: physicochemical; settings: pH 2
Method: It was stable at pH of 4.7 and pH of 6.8 up to 70° C. for 3 days.

[2] = system: DSS (Dahl Salt Sensitive) rats; assay: In vivo efficacy study on blood pressure in DSS rats (telemetry; systolic and diastolic pressure); settings: for Systolic blood pressure, mean / Diastolic blood pressure, Mean: Compound I-1 50 mg/kg; for Systolic blood pressure, mean: alone or combined, QD PO
Description: An in vivo study ascertains the effects on blood pressure in DSS (Dahl Salt Sensitive) rats. The DSS hypertensive rat model is a model of hypertension that is sensitive to dietary salt (NaCl), see for example Rapp (1982) Hypertension 4:753-763 and Hegde et al. BMC Pharmacology 2011, 11 (Suppl 1):P33. Under pentobarbital sodium anesthesia, a DSI (Data Sciences International, St. Paul, Minn.) telemetric probe is implanted. The transducer is inserted into abdominal aorta, and the transmitter is implanted into abdominal cavity. During postoperative recovery period, close observation is performed. Analgesics (Buprenorphine, 0.1-0.5 mg/kg, once per day for 1 day) and preventive antibiotics (Cephradine, 10˜15 mg/kg, ip., once per day for 3 days) are administered on a daily basis. Before the treatment period, all animals are fed with 8% high salt food for about 2 weeks. Test compound is formulated in 0.5% HPC and administered by oral gavage. Five groups of animals are treated as follows: 1. Vehicle, 0.5% HPC, QD, PO, N=5 2. Valsartan, 30 mg/kg, QD, PO, N=5 3. Compound I-1, 50 mg/kg, QD, PO, N=6 4. Compound I-1, 15 mg/kg+Valsartan, 30 mg/kg, QD, PO, N=5 5. Compound I-1, 50 mg/kg+Valsartan, 30 mg/kg, QD, PO, N=5 N is the number of animals. The mean arterial pressure, systolic pressure, diastolic pressure and heart rate after administration for each animal are measured. Interim results obtained before full study completion are shown in Tables 18 and 19 (full cohort of animals beyond day 7 were reduced due to some loss). Mean measurements of the systolic (Table 18) and diastolic (Table 19) blood pressures, for the baseline day prior to first treatment and for treatment days 1 and 7 only, in each treatment group, are shown. Measurements obtained every other hour only are shown.

[3] = design: species or system Cynomolgus Monkeys; settings: cynomolgus monkey, in vivo, po, 10 mg/kg
Method: A cross-over study design consisting of two groups with two animals per group was conducted to examine the pharmacokinetic properties of compound I-1 of the present disclosure.
Compound I-1 and AHU377 were administered to each group as follows: compound I-1 on Day 0 followed by AHU377 on Day 2 (Group 1), AHU377 on Day 0 followed by compound I-1 on Day 2 (Group 2). Each animal received a single 10 mg/kg (5 ml/kg) oral gavage dose of the specified study drug on the specified day. The animals were 2.5 to 3.5 years of age and weighed between 3.1 and 4.3 kg at the beginning of the study. Both compounds were formulated in 0.5% methylcellulose (400 cp) and 0.1% Tween 80 (w,v) in water. Blood samples for pharmacokinetics analysis were collected at t=0, 0.25, 0.5, 1, 2, 4, 8, 24 and 48 hours post dose on Day 0 and Day 2. Plasma was prepared by collecting whole blood samples into tubes containing K2EDTA and NaF (final concentrations: ˜1 mg/mL (K2EDTA) and ˜2 mg/mL (NaF)). These tubes were kept in an ice bath prior to centrifugation at approximately 2,000 rcf for 10 minutes at approximately 5° C. To each resultant plasma sample (target volume 200 μL), 4 μL of 50% phosphoric acid (v/v) was added.
[^13C4]-LBQ657 was added as an internal standard to the pharmacokinetic (PK) samples and calibration standards prior to analysis by LC-MS/MS. The LC-MS system consisted of an API6500+ mass spectrometer coupled to an Agilent 1290 HPLC system equipped with a CTC Pal autosampler. The mass spectrometer was operated in the positive ion mode.

SMILES: CCOC(=O)[C@H](C)C[C@@H](Cc1ccc(-c2ccccc2)cc1)NC(=O)CCC(=O)N[C@@H](CC(C)C)C(=O)O [Compound I-1, (4-(((2S,4R)-1-([1,1′-biphenyl]-4-yl)-5-ethoxy-4-methyl-5-oxopentan-2-yl)amino)-4-oxobutanoyl)-L-leucine]
- degradation in solution ([1]; 1 day): 18.27%
- solution stability under acidic conditions [1]: unstable
- Systolic blood pressure, mean ([2]; Baseline day prior to first treatment, Hour 1, groups Valsartan 30 mg/kg): 163.63
- Systolic blood pressure, mean ([2]; Baseline day prior to first treatment, Hour 3, groups Valsartan 30 mg/kg): 159.24
- Systolic blood pressure, mean ([2]; Baseline day prior to first treatment, Hour 5, groups Valsartan 30 mg/kg): 155.66
- Systolic blood pressure, mean ([2]; Baseline day prior to first treatment, Hour 7, groups Valsartan 30 mg/kg): 154.92
- Systolic blood pressure, mean ([2]; Baseline day prior to first treatment, Hour 9, groups Valsartan 30 mg/kg): 157.92
- Systolic blood pressure, mean ([2]; Baseline day prior to first treatment, Hour 11, groups Valsartan 30 mg/kg): 162.87
- Systolic blood pressure, mean ([2]; Baseline day prior to first treatment, Hour 13, groups Valsartan 30 mg/kg): 167.91
- Systolic blood pressure, mean ([2]; Baseline day prior to first treatment, Hour 15, groups Valsartan 30 mg/kg): 167.33
- Systolic blood pressure, mean ([2]; Baseline day prior to first treatment, Hour 17, groups Valsartan 30 mg/kg): 167.09
- Systolic blood pressure, mean ([2]; Baseline day prior to first treatment, Hour 19, groups Valsartan 30 mg/kg): 169.48
- Systolic blood pressure, mean ([2]; Baseline day prior to first treatment, Hour 21, groups Valsartan 30 mg/kg): 169.41
- Systolic blood pressure, mean ([2]; Baseline day prior to first treatment, Hour 23, groups Valsartan 30 mg/kg): 161.71
- Diastolic blood pressure, Mean ([2]; Baseline day, Hour 1): 111.95
- Diastolic blood pressure, Mean ([2]; Baseline day, Hour 3): 107.76
- Diastolic blood pressure, Mean ([2]; Baseline day, Hour 5): 104.17
- Diastolic blood pressure, Mean ([2]; Baseline day, Hour 7): 102.18
- Diastolic blood pressure, Mean ([2]; Baseline day, Hour 9): 105.63
- Diastolic blood pressure, Mean ([2]; Baseline day, Hour 11): 111.89
- Diastolic blood pressure, Mean ([2]; Baseline day, Hour 13): 116.86
- Diastolic blood pressure, Mean ([2]; Baseline day, Hour 15): 115.85
- Diastolic blood pressure, Mean ([2]; Baseline day, Hour 17): 116.42
- Diastolic blood pressure, Mean ([2]; Baseline day, Hour 19): 117.36
- Diastolic blood pressure, Mean ([2]; Baseline day, Hour 21): 116.95
- Diastolic blood pressure, Mean ([2]; Baseline day, Hour 23): 109.93
- Diastolic blood pressure, Mean ([2]; Dosing day 1, Hour 1): 115.05
- Diastolic blood pressure, Mean ([2]; Dosing day 1, Hour 3): 106.99
- Diastolic blood pressure, Mean ([2]; Dosing day 1, Hour 5): 104.66
- Diastolic blood pressure, Mean ([2]; Dosing day 1, Hour 7): 106.82
- Diastolic blood pressure, Mean ([2]; Dosing day 1, Hour 9): 108.88
- Diastolic blood pressure, Mean ([2]; Dosing day 1, Hour 11): 114.90
- Diastolic blood pressure, Mean ([2]; Dosing day 1, Hour 13): 116.00
- Diastolic blood pressure, Mean ([2]; Dosing day 1, Hour 15): 117.42
- Diastolic blood pressure, Mean ([2]; Dosing day 1, Hour 17): 118.42
- Diastolic blood pressure, Mean ([2]; Dosing day 1, Hour 19): 122.21
- Diastolic blood pressure, Mean ([2]; Dosing day 1, Hour 21): 115.68
- Diastolic blood pressure, Mean ([2]; Dosing day 1, Hour 23): 111.09
- Diastolic blood pressure, Mean ([2]; Dosing day 7, Hour 1): 118.61
- Diastolic blood pressure, Mean ([2]; Dosing day 7, Hour 3): 109.11
- Diastolic blood pressure, Mean ([2]; Dosing day 7, Hour 5): 108.96
- Diastolic blood pressure, Mean ([2]; Dosing day 7, Hour 7): 114.22
- Diastolic blood pressure, Mean ([2]; Dosing day 7, Hour 9): 126.44
- Diastolic blood pressure, Mean ([2]; Dosing day 7, Hour 11): 129.02
- Diastolic blood pressure, Mean ([2]; Dosing day 7, Hour 13): 131.34
- Diastolic blood pressure, Mean ([2]; Dosing day 7, Hour 15): 126.20
- Diastolic blood pressure, Mean ([2]; Dosing day 7, Hour 17): 127.80
- Diastolic blood pressure, Mean ([2]; Dosing day 7, Hour 19): 124.88
- Diastolic blood pressure, Mean ([2]; Dosing day 7, Hour 21): 116.93
- Diastolic blood pressure, Mean ([2]; Dosing day 7, Hour 23): 120.18
- effect on blood pressure ([2]; DSS rats, as compared to animals treated with vehicle alone, interim results): trend for lower blood pressure
- Systolic blood pressure, mean ([2]; Dosing day 1, Hour 1, Valsartan 30 mg/kg): 164.94
- Systolic blood pressure, mean ([2]; Dosing day 1, Hour 3, Valsartan 30 mg/kg): 152.46
- Systolic blood pressure, mean ([2]; Dosing day 1, Hour 5, Valsartan 30 mg/kg): 155.79
- Systolic blood pressure, mean ([2]; Dosing day 1, Hour 7, Valsartan 30 mg/kg): 159.33
- Systolic blood pressure, mean ([2]; Dosing day 1, Hour 9, Valsartan 30 mg/kg): 166.16
- Systolic blood pressure, mean ([2]; Dosing day 1, Hour 11, Valsartan 30 mg/kg): 168.46
- Systolic blood pressure, mean ([2]; Dosing day 1, Hour 13, Valsartan 30 mg/kg): 169.35
- Systolic blood pressure, mean ([2]; Dosing day 1, Hour 15, Valsartan 30 mg/kg): 169.78
- Systolic blood pressure, mean ([2]; Dosing day 1, Hour 17, Valsartan 30 mg/kg): 174.28
- Systolic blood pressure, mean ([2]; Dosing day 1, Hour 19, Valsartan 30 mg/kg): 166.11
- Systolic blood pressure, mean ([2]; Dosing day 1, Hour 21, Valsartan 30 mg/kg): 162.24
- Systolic blood pressure, mean ([2]; Dosing day 1, Hour 23, Valsartan 30 mg/kg): 158.31
- Systolic blood pressure, mean ([2]; Dosing day 7, Hour 1, Valsartan 30 mg/kg): 167.78
- Systolic blood pressure, mean ([2]; Dosing day 7, Hour 3, Valsartan 30 mg/kg): 158.75
- Systolic blood pressure, mean ([2]; Dosing day 7, Hour 5, Valsartan 30 mg/kg): 156.95
- Systolic blood pressure, mean ([2]; Dosing day 7, Hour 7, Valsartan 30 mg/kg): 165.23
- Systolic blood pressure, mean ([2]; Dosing day 7, Hour 9, Valsartan 30 mg/kg): 176.77
- Systolic blood pressure, mean ([2]; Dosing day 7, Hour 11, Valsartan 30 mg/kg): 182.56
- Systolic blood pressure, mean ([2]; Dosing day 7, Hour 13, Valsartan 30 mg/kg): 182.29
- Systolic blood pressure, mean ([2]; Dosing day 7, Hour 15, Valsartan 30 mg/kg): 175.64
- Systolic blood pressure, mean ([2]; Dosing day 7, Hour 17, Valsartan 30 mg/kg): 179.39
- Systolic blood pressure, mean ([2]; Dosing day 7, Hour 19, Valsartan 30 mg/kg): 175.46
- Systolic blood pressure, mean ([2]; Dosing day 7, Hour 21, Valsartan 30 mg/kg): 165.83
- Systolic blood pressure, mean ([2]; Dosing day 7, Hour 23, Valsartan 30 mg/kg): 170.13
- compound I-1 concentrations in plasma [3]: below the lower limit of quantitation
- tolerability [3]: well tolerated
- relative bioavailability compared to AHU377 based on AUC values ([3]; male): 72%
- relative bioavailability compared to AHU377 based on Cmax values ([3]; male): 30%
